The source of these data is patent US20040249128A1, “Molecules for disease detection and treatment” (priority 2001, published 2004).

For assay [1] the following is noted: intranasal; greater than those produced by hydrocortisone; cited from earlier work.
The subject of assay [2] is bovine aortic endothelial cells. Conditions: confluent cells; cited from earlier work.
In assay [3] the test system is vascular smooth muscle cells (SMCs). Conditions: cited from earlier work.
Assay [4] concerns dendritic cells. As to the kind of experiment: Microarray expression analysis during differentiation and maturation of dendritic cells. The class given is cell-based, human. Conditions: maturation of dendritic cells induced by TNF-alpha, versus immature dendritic cells (Lci). The protocol: Human CD34 positive precursor cells were isolated by positive immunomagnetic selection from the leukapheresis of normal volunteer donors who had undergone G-CSF-induced stem cell mobilization. The purified CD34+ cells were cultured in vitro for 10 days in the presence of recombinant GM-CSF, Stem Cell Factor, TNF-alpha, TGF-beta1, and Flt3-Ligand. The resulting expanded cell population was enriched for cell cluster-forming immature dendritic cells (Lci) by sedimentation over a 7.5% BSA column at 1 g for 30 min. Immature dendritic cells were cultured for two additional days in the presence of the same combination of cytokines supplemented with LPS, IL-1beta, TNF-alpha, or double strand RNA. In addition, cluster-forming immature dendritic cells were disrupted by vigorous pipetting and cultured for two additional days in the presence of the same combination of cytokines without addition of any additional factor. The partially mature dendritic cells derived by mechanical disruption of cell clusters are characterized by the presence of intracellular rod-shaped structures called Birbeck's Granules. The dendritic cell population produced using this method was called Birbeck's Granule-positive dendritic cells, or BG. […]

For assay [5], the system named is human umbilical vein endothelial cells (HVECs). Conditions: TNF-α treated compared with untreated cells; cited from earlier work.
In assay [6] the test system is endothelial cell lines. The assay is described as follows: Microarray expression analysis of endothelial cell lines treated with TNF-α. The assay is classed as cell-based, human. Conditions: 10 ng/ml TNF-α, within four hours; in five out of the eight endothelial cell lines.
For assay [7], the system named is human fibroblastic IMR-90 cells. Conditions: cited from earlier work.

Turning to `C[C@H]1C[C@H]2[C@@H]3CCC4=CC(=O)C=C[C@]4(C)[C@@]3(Cl)[C@@H](O)C[C@]2(C)[C@@]1(O)C(=O)CO` [beclomethasone, Beclomethasone], the “anti-inflammatory and vasoconstrictive effects relative to hydrocortisone” value in assay [1] was 5000 times.
For TNF-α, the “suppression of [3H]proline incorporation” value in assay [2] and in assay [7] was “not observed” throughout. The “relative proportion of collagen types IV and V” value in assay [3] is “decreases”. Besides, in assay [3] (confluent cultures), the “incorporation of [3H]proline into collagenase-digestible proteins (CDP) and noncollagenous proteins (NCP)” value is listed as “suppresses”. In assay [4], the “expression of SEQ ID NO:96” value was “greater than two-fold expression”. For the same compound, the “increase of cellular secretions of MCP-1” value in assay [5] is reported as 119 fold. Further, the “expression of SEQ ID NO:58” value in assay [6] is “downregulated by at least two-fold”.
